# According to ChEMBL document CHEMBL5291721, “A preclinical secondary pharmacology resource illuminates target-adverse drug reaction associations of marketed drugs” (Nat Commun, 2023):
# Assays:
# [1] = target: T1, Alpha-1A adrenergic receptor (Homo sapiens, UniProt P35348); assay type: functional, cell-based; further: assay procedure not described here
# T1 sequence (P35348 whole entry): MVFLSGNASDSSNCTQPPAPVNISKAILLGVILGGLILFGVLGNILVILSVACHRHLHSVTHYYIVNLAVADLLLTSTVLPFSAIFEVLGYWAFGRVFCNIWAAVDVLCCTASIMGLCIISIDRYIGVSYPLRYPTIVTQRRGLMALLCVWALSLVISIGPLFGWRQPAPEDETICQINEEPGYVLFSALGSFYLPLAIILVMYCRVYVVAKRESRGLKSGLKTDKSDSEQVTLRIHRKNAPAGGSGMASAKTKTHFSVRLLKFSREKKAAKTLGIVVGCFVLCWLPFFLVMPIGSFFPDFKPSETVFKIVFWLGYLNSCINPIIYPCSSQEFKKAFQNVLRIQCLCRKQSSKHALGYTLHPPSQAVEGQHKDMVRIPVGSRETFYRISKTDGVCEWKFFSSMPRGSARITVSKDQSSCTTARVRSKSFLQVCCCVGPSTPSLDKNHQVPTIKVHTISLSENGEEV
# [2] = target: T1, Alpha-1A adrenergic receptor; assay type: functional, cell-based; remark: listed apart in the source
# [3] = target: T2, Glucocorticoid receptor (Homo sapiens, UniProt P04150); assay type: functional; further: assay procedure not described here
# T2 sequence (P04150 whole entry): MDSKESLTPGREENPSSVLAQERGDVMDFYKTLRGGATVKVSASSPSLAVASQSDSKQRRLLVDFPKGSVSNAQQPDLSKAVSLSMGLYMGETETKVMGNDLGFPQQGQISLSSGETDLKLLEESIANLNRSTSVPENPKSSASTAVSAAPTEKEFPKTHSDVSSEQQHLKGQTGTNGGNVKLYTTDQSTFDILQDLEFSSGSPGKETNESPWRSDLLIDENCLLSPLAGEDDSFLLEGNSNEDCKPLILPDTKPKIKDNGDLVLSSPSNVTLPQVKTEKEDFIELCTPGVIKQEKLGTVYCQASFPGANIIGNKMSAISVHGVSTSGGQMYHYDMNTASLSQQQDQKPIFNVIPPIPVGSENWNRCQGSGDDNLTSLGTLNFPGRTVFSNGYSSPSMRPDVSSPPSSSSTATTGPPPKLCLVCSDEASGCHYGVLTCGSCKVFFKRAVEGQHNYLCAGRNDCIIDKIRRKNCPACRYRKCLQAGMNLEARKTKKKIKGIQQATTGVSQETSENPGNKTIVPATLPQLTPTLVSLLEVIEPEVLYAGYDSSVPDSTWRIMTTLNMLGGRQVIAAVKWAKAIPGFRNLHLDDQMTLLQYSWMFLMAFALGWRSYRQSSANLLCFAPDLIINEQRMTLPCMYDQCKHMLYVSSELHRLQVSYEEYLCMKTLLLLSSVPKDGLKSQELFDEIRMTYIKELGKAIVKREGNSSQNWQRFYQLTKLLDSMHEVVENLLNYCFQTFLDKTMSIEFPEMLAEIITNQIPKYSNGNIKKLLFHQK
# [4] = target: T3, Alpha-2C adrenergic receptor (Homo sapiens, UniProt P18825); assay type: functional
# T3 sequence (P18825 whole entry): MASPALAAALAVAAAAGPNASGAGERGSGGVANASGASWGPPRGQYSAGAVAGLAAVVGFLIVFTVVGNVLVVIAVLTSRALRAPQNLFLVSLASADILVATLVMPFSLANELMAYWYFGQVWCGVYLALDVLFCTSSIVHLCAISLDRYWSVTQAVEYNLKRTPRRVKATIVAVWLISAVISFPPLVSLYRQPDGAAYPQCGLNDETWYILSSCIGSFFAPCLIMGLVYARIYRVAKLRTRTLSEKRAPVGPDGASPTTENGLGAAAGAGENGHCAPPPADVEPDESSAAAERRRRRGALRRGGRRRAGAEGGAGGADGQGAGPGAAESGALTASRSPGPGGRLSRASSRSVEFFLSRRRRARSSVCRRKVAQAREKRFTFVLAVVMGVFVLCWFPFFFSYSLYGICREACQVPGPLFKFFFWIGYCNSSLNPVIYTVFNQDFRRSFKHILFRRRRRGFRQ
# [5] = target: T4, Alpha-2A adrenergic receptor (Homo sapiens, UniProt P08913)
# T4 sequence (P08913 whole entry): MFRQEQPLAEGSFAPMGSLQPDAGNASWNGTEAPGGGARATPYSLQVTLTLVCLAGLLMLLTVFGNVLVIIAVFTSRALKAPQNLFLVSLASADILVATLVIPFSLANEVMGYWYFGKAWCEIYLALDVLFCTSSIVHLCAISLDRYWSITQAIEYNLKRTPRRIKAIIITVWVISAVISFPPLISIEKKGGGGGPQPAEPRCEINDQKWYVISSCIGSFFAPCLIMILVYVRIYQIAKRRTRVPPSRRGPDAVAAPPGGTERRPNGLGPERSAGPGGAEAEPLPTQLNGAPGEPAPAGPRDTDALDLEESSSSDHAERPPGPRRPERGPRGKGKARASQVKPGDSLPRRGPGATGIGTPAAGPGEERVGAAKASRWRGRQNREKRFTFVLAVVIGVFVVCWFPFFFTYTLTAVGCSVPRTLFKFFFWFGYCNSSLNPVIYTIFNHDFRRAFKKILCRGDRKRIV
# [6] = target: Synaptic vesicular amine transporter (Rattus norvegicus, UniProt Q01827); assay type: functional; further: assay procedure not described here
# [7] = target: Sodium-dependent serotonin transporter (Homo sapiens, UniProt P31645); further: assay procedure not described here
# [8] = target: Gamma-aminobutyric acid receptor subunit alpha-1/alpha-2/beta-2/gamma-2 (Homo sapiens, UniProt P14867+P47870+P18507+P47869); assay type: functional, cell-based; further: assay procedure not described here
# Chain of Gamma-aminobutyric acid receptor subunit alpha-1/alpha-2/beta-2/gamma-2 (P14867 whole entry): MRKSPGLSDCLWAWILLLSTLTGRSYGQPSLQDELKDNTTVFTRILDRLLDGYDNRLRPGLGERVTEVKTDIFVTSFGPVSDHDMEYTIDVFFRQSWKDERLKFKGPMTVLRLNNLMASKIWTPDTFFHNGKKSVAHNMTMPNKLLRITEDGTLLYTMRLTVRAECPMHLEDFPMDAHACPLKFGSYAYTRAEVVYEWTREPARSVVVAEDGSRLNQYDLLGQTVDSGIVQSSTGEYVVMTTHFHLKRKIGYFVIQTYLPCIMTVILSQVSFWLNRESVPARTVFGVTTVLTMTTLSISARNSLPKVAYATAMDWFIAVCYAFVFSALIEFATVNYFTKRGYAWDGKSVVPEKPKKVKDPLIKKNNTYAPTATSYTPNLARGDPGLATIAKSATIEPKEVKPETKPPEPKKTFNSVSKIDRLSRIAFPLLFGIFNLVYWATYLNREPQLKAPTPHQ
# Chain of Gamma-aminobutyric acid receptor subunit alpha-1/alpha-2/beta-2/gamma-2 (P47870 whole entry): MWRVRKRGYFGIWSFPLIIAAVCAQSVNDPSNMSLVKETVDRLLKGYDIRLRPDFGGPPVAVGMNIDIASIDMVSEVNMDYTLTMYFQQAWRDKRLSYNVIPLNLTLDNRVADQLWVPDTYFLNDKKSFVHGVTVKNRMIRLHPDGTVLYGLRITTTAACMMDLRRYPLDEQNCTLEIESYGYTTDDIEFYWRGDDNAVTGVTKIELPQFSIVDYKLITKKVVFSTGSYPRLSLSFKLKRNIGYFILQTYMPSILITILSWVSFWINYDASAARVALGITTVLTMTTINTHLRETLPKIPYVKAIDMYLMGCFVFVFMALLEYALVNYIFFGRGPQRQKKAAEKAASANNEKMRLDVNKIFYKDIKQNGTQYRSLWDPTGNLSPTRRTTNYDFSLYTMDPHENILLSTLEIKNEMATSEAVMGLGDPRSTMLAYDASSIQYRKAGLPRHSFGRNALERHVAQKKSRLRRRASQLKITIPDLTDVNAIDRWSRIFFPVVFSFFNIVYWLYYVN
# Chain of Gamma-aminobutyric acid receptor subunit alpha-1/alpha-2/beta-2/gamma-2 (P18507 whole entry): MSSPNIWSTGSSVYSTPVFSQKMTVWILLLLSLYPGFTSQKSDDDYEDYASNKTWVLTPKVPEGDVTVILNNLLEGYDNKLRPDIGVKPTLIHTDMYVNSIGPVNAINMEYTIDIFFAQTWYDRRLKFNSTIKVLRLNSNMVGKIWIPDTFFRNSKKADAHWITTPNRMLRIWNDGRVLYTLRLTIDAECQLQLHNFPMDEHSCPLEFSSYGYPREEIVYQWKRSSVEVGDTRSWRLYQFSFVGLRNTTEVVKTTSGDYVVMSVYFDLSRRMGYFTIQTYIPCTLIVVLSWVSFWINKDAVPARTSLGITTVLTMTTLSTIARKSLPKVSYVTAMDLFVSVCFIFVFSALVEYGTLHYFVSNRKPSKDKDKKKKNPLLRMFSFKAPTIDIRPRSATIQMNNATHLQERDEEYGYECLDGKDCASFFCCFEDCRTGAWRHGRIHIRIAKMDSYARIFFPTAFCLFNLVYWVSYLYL
# Chain of Gamma-aminobutyric acid receptor subunit alpha-1/alpha-2/beta-2/gamma-2 (P47869 whole entry): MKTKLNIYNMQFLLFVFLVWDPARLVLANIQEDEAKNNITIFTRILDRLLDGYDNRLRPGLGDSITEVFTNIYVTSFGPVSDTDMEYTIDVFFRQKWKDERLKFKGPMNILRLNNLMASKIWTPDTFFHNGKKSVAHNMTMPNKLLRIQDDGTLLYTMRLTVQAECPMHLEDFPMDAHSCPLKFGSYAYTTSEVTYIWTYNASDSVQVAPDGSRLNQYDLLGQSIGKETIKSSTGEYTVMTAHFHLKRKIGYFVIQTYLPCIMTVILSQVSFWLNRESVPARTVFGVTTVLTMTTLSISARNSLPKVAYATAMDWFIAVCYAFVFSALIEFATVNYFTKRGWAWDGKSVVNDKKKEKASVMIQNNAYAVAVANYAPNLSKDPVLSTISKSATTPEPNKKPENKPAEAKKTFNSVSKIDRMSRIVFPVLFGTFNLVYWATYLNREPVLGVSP
# Chain of Synaptic vesicular amine transporter (Q01827 whole entry): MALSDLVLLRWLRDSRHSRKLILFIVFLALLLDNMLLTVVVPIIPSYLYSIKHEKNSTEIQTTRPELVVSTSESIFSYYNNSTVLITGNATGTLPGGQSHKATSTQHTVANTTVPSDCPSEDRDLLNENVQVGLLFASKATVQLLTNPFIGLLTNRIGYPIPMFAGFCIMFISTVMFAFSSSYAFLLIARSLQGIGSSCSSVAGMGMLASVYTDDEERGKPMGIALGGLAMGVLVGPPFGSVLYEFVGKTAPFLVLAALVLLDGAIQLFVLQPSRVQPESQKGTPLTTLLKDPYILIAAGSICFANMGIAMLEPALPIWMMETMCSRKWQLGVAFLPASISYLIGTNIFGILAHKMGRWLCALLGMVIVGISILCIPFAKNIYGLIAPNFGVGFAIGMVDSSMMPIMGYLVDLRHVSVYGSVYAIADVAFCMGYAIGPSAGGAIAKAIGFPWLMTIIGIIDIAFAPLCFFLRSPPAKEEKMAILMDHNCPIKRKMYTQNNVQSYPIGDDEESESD
# Chain of Sodium-dependent serotonin transporter (P31645 whole entry): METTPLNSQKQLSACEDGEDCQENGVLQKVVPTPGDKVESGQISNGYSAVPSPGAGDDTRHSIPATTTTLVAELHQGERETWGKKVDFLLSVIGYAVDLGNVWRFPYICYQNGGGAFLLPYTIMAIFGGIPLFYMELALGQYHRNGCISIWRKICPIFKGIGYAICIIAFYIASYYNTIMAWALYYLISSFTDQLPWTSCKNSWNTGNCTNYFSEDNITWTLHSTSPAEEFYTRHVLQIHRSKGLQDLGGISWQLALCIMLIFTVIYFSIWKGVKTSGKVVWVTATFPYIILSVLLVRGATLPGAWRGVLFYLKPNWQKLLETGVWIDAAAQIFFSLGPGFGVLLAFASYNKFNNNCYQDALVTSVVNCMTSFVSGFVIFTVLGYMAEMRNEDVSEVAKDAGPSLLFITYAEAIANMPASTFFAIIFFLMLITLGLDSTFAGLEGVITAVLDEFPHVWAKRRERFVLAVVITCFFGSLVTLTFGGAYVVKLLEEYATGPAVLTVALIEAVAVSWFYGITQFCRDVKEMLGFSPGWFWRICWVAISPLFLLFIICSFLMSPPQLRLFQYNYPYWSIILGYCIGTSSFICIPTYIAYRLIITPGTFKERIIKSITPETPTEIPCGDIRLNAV
molecule,measurement,setting,value
NCCCC(O)(P(=O)(O)O)P(=O)(O)O [ALENDRONIC ACID],AC50,[1],> 30 µM
same,AC50,[2],> 30 µM
COc1cccc2c1C(=O)c1c(O)c3c(c(O)c1C2=O)C[C@@](O)(C(C)=O)C[C@@H]3O[C@H]1C[C@H](N)[C@H](O)[C@H](C)O1 [DAUNORUBICIN],AC50,[3],> 10 µM
CC(C)CC(N(C)C)C1(c2ccc(Cl)cc2)CCC1 (stereo not drawn) [SIBUTRAMINE],AC50,[4],0.758 µM
same,AC50,[5],2.14 µM
COc1ccc(C(CN(C)C)C2(O)CCCCC2)cc1 (stereo not drawn) [VENLAFAXINE],AC50,[6],> 30 µM
COLISTIN,AC50,[7],> 30 µM
same,AC50,[8],> 30 µM
